Source: publication PMC11354370, “Inducing Receptor Degradation as a Novel Approach to Target CC Chemokine Receptor 2 (CCR2)” (International Journal of Molecular Sciences, 2024)
Like-named read-outs stand apart in the source and are kept apart here. Peptide text beside a SMILES is read from it. * marks the point of attachment. Cbz = O=C(OCc1ccccc1)*

Key:
CCR2-HaloTag-HiBiT [1] = experiment: Lytic HiBiT assay with inhibitor pretreatment (2 h) then vehicle or HaloPROTAC3 (3 h); format: cell-based, human; settings: 5 µg plasmid; for HaloPROTAC3-mediated CCR2 degradation after pretreatment with the inhibitor: inhibitor 2 h pretreatment, then 1 µM HaloPROTAC3 3 h
Experimental: To investigate the mechanism of action of HaloPROTAC3-induced degradation of CCR2-HaloTag-HiBiT, we pretreated the cells with a variety of inhibitors. […] After 2 h, the cells were treated with vehicle or HaloPROTAC3 (1µM) and degradation was measured after 3 h of HaloPROTAC3 treatment or vehicle control.
Next, we explored whether degradation occurs via the proteasomal or the lysosomal pathway. […] Finally, we included cycloheximide as an inhibitor of protein synthesis.
Fractional RLU values were calculated from the resulting baseline-corrected values by normalizing all values at a given time point to the vehicle-control value. For lytic HiBiT assays, data are presented as % of vehicle-control; for real-time HiBiT assays, data are presented as fractional RLUs, which corresponds to the ratio between the baseline-corrected RLU values of a compound and the RLU values of the vehicle at any given time point. […] To calculate the degradation rate (K) from real-time HiBiT assays, the degradation curves were fitted to a one-phase exponential decay model following the equation Y = (Y0 − Plateau)e^−Kt + Plateau.

CCR2-HaloTag-HiBiT [2] = target: T1, CCR2-HaloTag-HiBiT (UniProt P0A3G2+P41597, A155T/A167V/A172T/A224E/C128F/C176G/D78G/E160K/E257K/H272N/K175M/K195N/L47V/L88M/N227D/S58T/T264A/Y273L/Y87F); format: cell-based, human; settings: for Dmax ± SEM (maximal degradation): determined at 1 µM, negative values represent an increase in CCR2 levels
CCR2-HaloTag-HiBiT [3] = target: T1, CCR2-HaloTag-HiBiT; format: cell-based, human
CCR2-HaloTag-HiBiT [4] = target: T2, CCR2-HaloTag-HiBiT (Homo sapiens, UniProt P41597); format: cell-based
T2 construct: host or cells: A549 cells, lentiviral transduction, single-cell clones #25, #26, #27
Description: While the HiBiT luminescence approach provides a good platform for high-throughput screening of targeted protein degradation, integral membrane protein degradation studies benefit from information about their localization. […] To mitigate the need for transfection, we transduced A549 cells with lentiviral particles for stable integration of expression cassettes for CCR2-HaloTag-HiBiT expression constructs, followed by antibiotic selection and limiting dilution to generate single-cell clones.
A549 cells were seeded at 400,000 cells per well in 6 well dishes to be approximately 50% confluent the next day. For seeding 1.5 mL of cell-containing medium was used. A total of 500 µL of lentiviral particles and 1.6 µL of polybrene (Sigma-Aldrich, Merck, Darmstadt, Germany) were added on top, and cells were incubated overnight. The next day, cells were washed two to three times in PBS and a growth medium containing 100 µg/mL of hygromycin B at 100 µg/mL was added. Cells were incubated until non-transduced cells were dead or until transduced cells were confluent (in which case they were split into a bigger flask in a hygromycin selection medium). After selection, cells were diluted to 0.5 cells/200 µL in a growth medium containing 20% FCS, and 96 well plates were seeded with 200 µL per well. Single-cell clones were grown back up to bigger populations and screened by immunofluorescence for HiBiT expression.
A549 CCR2b-HALO-HiBiT expressing cells were seeded onto 384-well plates suitable for high-throughput microscopy (PerkinElmer, Groningen, The Netherlands; Corning, NY, USA) with a density ranging from 2000–4000 cells per well. The next day, plates were treated with different concentrations of HaloPROTAC3 or ent-HaloPROTAC3 using a Tecan D300e digital dispenser. […] Cells were then washed three times in PBS and simultaneously permeabilized and blocked for an hour using a modified blocking buffer (0.1% Triton (v/v), 1% BSA (w/v) (Sigma, A7030, Merck, Darmstadt, Germany)). […] Plates were imaged on either Yokogawa CV7000 or CV8000 systems with appropriate settings for detection of each relevant channel. Images were analyzed using Columbus image analysis.

CCR2-HaloTag-HiBiT [5] = target: T1, CCR2-HaloTag-HiBiT; format: cell-based, human; settings: 1 µM pretreatment 3 h, then 60 nM CCL2; HEK293T CCR2-HaloTag-HiBiT
CCR2-HaloTag-HiBiT [6] = target: T1, CCR2-HaloTag-HiBiT; experiment: xCELLigence label-free impedance assay, CCL2 stimulation of HEK293T cells transfected with CCR2-HaloTag-HiBiT; settings: HEK293T cells expressing CCR2-HaloTag-HiBiT

T2 sequence (P41597 other isoform, or with tags, fused parts or gaps): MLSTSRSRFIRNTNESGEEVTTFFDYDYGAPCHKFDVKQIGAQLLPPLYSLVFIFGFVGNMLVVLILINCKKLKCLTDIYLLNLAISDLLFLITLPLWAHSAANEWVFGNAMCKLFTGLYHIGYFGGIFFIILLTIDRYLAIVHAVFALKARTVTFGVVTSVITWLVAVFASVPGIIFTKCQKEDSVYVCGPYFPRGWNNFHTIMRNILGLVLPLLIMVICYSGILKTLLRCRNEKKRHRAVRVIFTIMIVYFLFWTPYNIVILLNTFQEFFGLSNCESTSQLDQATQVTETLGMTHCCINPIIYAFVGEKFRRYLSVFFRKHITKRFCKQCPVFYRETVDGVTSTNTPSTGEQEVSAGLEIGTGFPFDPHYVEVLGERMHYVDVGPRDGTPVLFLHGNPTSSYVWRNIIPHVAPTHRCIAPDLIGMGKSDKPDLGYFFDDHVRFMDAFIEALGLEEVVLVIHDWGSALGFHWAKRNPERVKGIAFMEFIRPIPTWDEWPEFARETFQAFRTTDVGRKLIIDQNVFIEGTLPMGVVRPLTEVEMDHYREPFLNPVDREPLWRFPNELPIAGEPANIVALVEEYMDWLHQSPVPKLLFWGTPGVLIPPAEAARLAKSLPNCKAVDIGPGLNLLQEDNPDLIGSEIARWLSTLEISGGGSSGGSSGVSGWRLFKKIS
T1 sequence (P41597+P0A3G2 fused with the stated changes): as the sequence (P41597 other isoform, or with tags, fused parts or gaps) above

Question: With CO/C1=C\C(C)=C\[C@@H](C)[C@@H](O)[C@@H](C)C/C(C)=C/C=C/[C@H](OC)[C@@H]([C@@H](C)[C@@H](O)[C@H](C)[C@@]2(O)C[C@@H](O)[C@H](C)[C@@H](C(C)C)O2)OC1=O [Bafilomycin-A1, Bafilomycin A1] as the compound, how does the “increase in CCR2-HaloTag-HiBiT levels, exclusive treatment with inhibitor” value (CCR2-HaloTag-HiBiT [1]; inhibitor 2 h then vehicle 3 h) read?
Answer: > 30%

Question: Which results are given for Cc1ncsc1-c1ccc(CNC(=O)[C@@H]2C[C@@H](O)CN2C(=O)[C@H](C(C)C)N2Cc3ccccc3C2=O)c(OCCOCCOCCOCCCCCCCl)c1 [HaloPROTAC3]?
Answer: decrease in CCR2 levels (luminescent signal) compared to vehicle control (CCR2-HaloTag-HiBiT [2]; 1 µM, 24 h, 5 µg plasmid): ~ 35%; CCR2 degraded, time course (CCR2-HaloTag-HiBiT [2]; 1 µM, after 4 h, 5 µg plasmid (Figure S4)): Approximately 20%; CCR2 degraded, time course (CCR2-HaloTag-HiBiT [2]; 1 µM, after 24 h, 5 µg plasmid (Figure S4)): 26%; CCR2 degraded, time course (maximum degradation) (CCR2-HaloTag-HiBiT [2]; 1 µM, by 6 h, 5 µg plasmid (Figure S4)): 24%; pDC50 ± SEM (apparent potency of degradation) (CCR2-HaloTag-HiBiT [2]; 24 h, 5 µg plasmid): 7.4 ± 0.01; DC50 (CCR2-HaloTag-HiBiT [2]; 24 h, 5 µg plasmid, read-out: DC50 (apparent degradation potency) (converted)): 42 nM; Dmax ± SEM (maximal degradation) (CCR2-HaloTag-HiBiT [2]; 24 h): 38 ± 5%; degradation of CCR2-HaloTag-HiBiT depending on the protein expression levels (CCR2-HaloTag-HiBiT [2]; summary over lytic and real-time HiBiT assays (Figure 2 and Figure 3)): 30–80%; degradation achieved after 3 h treatment (CCR2-HaloTag-HiBiT [3]; 1 µM (Figure 3B,F)): > 70%; degradation rate compared with cycloheximide on its own (CCR2-HaloTag-HiBiT [3]; 1 µM HaloPROTAC3 in absence or presence of 10 µM cycloheximide): higher than that determined by cycloheximide on its own; degradation rate (Kdeg) (CCR2-HaloTag-HiBiT [3]; 1 µM, 1 µg plasmid): 0.47 ± 0.04 h⁻¹; maximal degradation at 24 h (CCR2-HaloTag-HiBiT [3]; 1 µM, 1 µg plasmid): 89 ± 2%; degradation reached after 9 h of treatment up to 24 h (CCR2-HaloTag-HiBiT [3]; 1 µM, 3 µg plasmid): ≥ 90%; maximal degradation at 24 h (CCR2-HaloTag-HiBiT [3]; 1 µM, 3 µg plasmid): 76 ± 4%; time Dmax was maintained (CCR2-HaloTag-HiBiT [3]; 1 µM, 3 µg plasmid): ~ 15 h; degradation rate (Kdeg) (CCR2-HaloTag-HiBiT [3]; 1 µM, 3 µg plasmid, one-phase exponential decay): 0.52 ± 0.04 h⁻¹; degradation rate (Kdeg) (CCR2-HaloTag-HiBiT [3]; 1 µM, 5 µg plasmid): 0.41 ± 0.17 h⁻¹; maximal degradation at 24 h (CCR2-HaloTag-HiBiT [3]; 1 µM, 5 µg plasmid): 60 ± 6%; degradation potency (pDmax50) (CCR2-HaloTag-HiBiT [3]; 3 µg plasmid, Dmax at each concentration): 6.7 ± 0.1; CCR2 degradation by HaloPROTAC3 in the absence of inhibitor (CCR2-HaloTag-HiBiT [1]; 1 µM HaloPROTAC3, 3 h): 32%; maximal degradation (HiBiT antibody signal) (CCR2-HaloTag-HiBiT [4]; A549 clone #25, 1 µM, 24 h): 39%; DC50 (CCR2-HaloTag-HiBiT [4]; A549 clone #25, 24 h): 17.1 nM; reduction of CCR2-HaloTag-HiBiT levels (HiBiT antibody signal) (CCR2-HaloTag-HiBiT [4]; A549 clone #26, 1 µM, 24 h): approximately 80%; DC50 (CCR2-HaloTag-HiBiT [4]; A549 clone #26, 24 h): 18.1 nM; pDC50 (CCR2-HaloTag-HiBiT [4]; A549 clone #26, 24 h): 7.8 ± 0.1; reduction of CCR2-HaloTag-HiBiT levels (HiBiT antibody signal) (CCR2-HaloTag-HiBiT [4]; A549 clone #27, 1 µM, 24 h): approximately 80%; DC50 (CCR2-HaloTag-HiBiT [4]; A549 clone #27, 24 h): 11.8 nM; pDC50 (CCR2-HaloTag-HiBiT [4]; A549 clone #27, 24 h): 8.0 ± 0.2; remaining CCL2 response (AUC first 20 min, normalized to 60 nM CCL2 alone) (CCR2-HaloTag-HiBiT [5]): 25 ± 19%

Question: With CC(C)C[C@@H](C=O)NC(=O)[C@H](CC(C)C)NC(=O)[C@H](CC(C)C)NC(=O)OCc1ccccc1 [MG-132] (Cbz-Leu-Leu-Leu-aldehyde) as the compound, how does the “HaloPROTAC3-mediated CCR2 degradation after pretreatment with the inhibitor” value (CCR2-HaloTag-HiBiT [1]) read?
Answer: partially or fully recovered

Question: What about the “reduction in CCR2 levels, exclusive treatment with inhibitor” value (shortened to “reduction in CCR2 levels … with inhibitor”) (CCR2-HaloTag-HiBiT [1]; inhibitor 2 h then vehicle 3 h) of the same compound?
Answer: not observed

Question: Which results are given for NS(=O)(=O)OC[C@@H]1C[C@@H](n2ccc3c(N[C@H]4CCc5ccccc54)ncnc32)C[C@@H]1O [MLN-4924, Pevonedistat]?
Answer: HaloPROTAC3-mediated CCR2 degradation after pretreatment with the inhibitor (CCR2-HaloTag-HiBiT [1]): fully prevented; reduction in CCR2 levels, exclusive treatment with inhibitor (CCR2-HaloTag-HiBiT [1]; inhibitor 2 h then vehicle 3 h): 24%

Question: CC(C)C[C@H](NC(=O)[C@H](Cc1ccccc1)NC(=O)c1cnccn1)B(O)O [bortezomib] was tested. Which “HaloPROTAC3-mediated CCR2 degradation after pretreatment with the inhibitor” value (CCR2-HaloTag-HiBiT [1]) did it give?
Answer: partially or fully recovered

Question: What about the “reduction in CCR2 levels … with inhibitor” value (CCR2-HaloTag-HiBiT [1]; inhibitor 2 h then vehicle 3 h) of the same compound?
Answer: ~ 17%

Question: How did the “effect on receptor levels, inhibitor on its own” value (CCR2-HaloTag-HiBiT [1]; inhibitor 2 h then vehicle 3 h) turn out when CCN(CC)CCCC(C)Nc1ccnc2cc(Cl)ccc12 (stereo not shown) [chloroquine, Chloroquine diphosphate] was run?
Answer: not affected

Question: Which “native degradation rate (Knative) of CCR2-HaloTag-HiBiT” value (CCR2-HaloTag-HiBiT [3]; 10 µM cycloheximide, up to 24 h) does the source give for C[C@@H]1C[C@@H]([C@H](O)CC2CC(=O)NC(=O)C2)C(=O)[C@@H](C)C1 [cycloheximide] here?
Answer: 0.25 ± 0.01 h⁻¹

Question: What about the “HaloPROTAC3-mediated CCR2 degradation after pretreatment with the inhibitor” value (CCR2-HaloTag-HiBiT [1]) of the same compound?
Answer: not affected

Question: And the “reduction in CCR2 levels … with inhibitor” value (CCR2-HaloTag-HiBiT [1]; inhibitor 2 h then vehicle 3 h)?
Answer: more than 50%

Question: With Cc1ncsc1-c1ccc(CNC(=O)[C@H]2C[C@H](O)CN2C(=O)[C@@H](C(C)C)N2Cc3ccccc3C2=O)c(OCCOCCOCCOCCCCCCCl)c1 [ent-HaloPROTAC3] as the compound, how does the “decrease in CCR2 levels (luminescent signal) compared to vehicle control” value (CCR2-HaloTag-HiBiT [2]; 1 µM, 24 h, 5 µg plasmid) read?
Answer: comparable to vehicle control

Question: What about the “Dmax ± SEM (maximal degradation)” value (CCR2-HaloTag-HiBiT [2]; 24 h) of the same compound?
Answer: −1 ± 4%

Question: What about the “CCR2 levels upon titration of compound (normalized to vehicle control 100%)” value (CCR2-HaloTag-HiBiT [2]; multiple concentrations, 24 h, maximal level reached) of the same compound?
Answer: remained unchanged

Question: What about the “CCR2 levels over 24 h” value (CCR2-HaloTag-HiBiT [3]; 1 µM, all DNA plasmid concentrations (1, 3, 5 µg; Figure S5)) of the same compound?
Answer: remained unchanged

Question: What about the “change of CCR2 levels, multiple concentrations” value (CCR2-HaloTag-HiBiT [3]; 3 µg plasmid, 24 h) of the same compound?
Answer: did not change CCR2 levels at any of the concentrations tested

Question: And the “effect on HiBiT immunofluorescence signal” value (CCR2-HaloTag-HiBiT [4]; 1 µM, 24 h, A549 clones)?
Answer: appeared to increase the signal throughout the cell

Question: And the “remaining CCL2 response (AUC first 20 min, normalized to 60 nM CCL2 alone)” value (CCR2-HaloTag-HiBiT [5])?
Answer: 85 ± 10%

Question: Which “HaloPROTAC3-mediated CCR2 degradation after pretreatment with the inhibitor” value (CCR2-HaloTag-HiBiT [1]) does the source give for COc1cc(C(=O)O)ccc1NC(=O)[C@@H]1N[C@@H](CC(C)(C)C)[C@](C#N)(c2ccc(Cl)cc2F)[C@H]1c1cccc(Cl)c1F [idasanutlin] here?
Answer: neither pomalidomide nor idasanutlin had an effect

Question: For Nc1cccc2c1C(=O)N(C1CCC(=O)NC1=O)C2=O (stereo not shown) [pomalidomide], which “HaloPROTAC3-mediated CCR2 degradation after pretreatment with the inhibitor” value (CCR2-HaloTag-HiBiT [1]) is on record?
Answer: neither pomalidomide nor idasanutlin had an effect

Question: With “CCL2: endogenous chemokine ligand of CCR2” as the compound, how does the “efficacy (Emax) of CCL2” value (CCR2-HaloTag-HiBiT [6]) read?
Answer: 68 ± 8%

Question: And the “pEC50 of CCL2-induced impedance increase” value (CCR2-HaloTag-HiBiT [6])?
Answer: 7.6 ± 0.2

Question: What about the EC50 (CCR2-HaloTag-HiBiT [6]; read-out: EC50 of CCL2-induced impedance increase) of the same compound?
Answer: 29 nM
